The record followed here is patent US12661410B2, “Compounds for targeted degradation of RET” (C4 Therapeutics, Inc., priority 2020, dated 2026).

Residue numbers refer to the chain shown, from its start. Where two headings read alike, the source gives them in different places.

Test [1] concerns the target T1, RET (658-1114) (Homo sapiens, UniProt P07949).
T1 construct: 658-1114; expressed in transfected cells; host or cells: 293T.144 (293T cells, generated in-house)
T1 sequence (P07949 658-1114): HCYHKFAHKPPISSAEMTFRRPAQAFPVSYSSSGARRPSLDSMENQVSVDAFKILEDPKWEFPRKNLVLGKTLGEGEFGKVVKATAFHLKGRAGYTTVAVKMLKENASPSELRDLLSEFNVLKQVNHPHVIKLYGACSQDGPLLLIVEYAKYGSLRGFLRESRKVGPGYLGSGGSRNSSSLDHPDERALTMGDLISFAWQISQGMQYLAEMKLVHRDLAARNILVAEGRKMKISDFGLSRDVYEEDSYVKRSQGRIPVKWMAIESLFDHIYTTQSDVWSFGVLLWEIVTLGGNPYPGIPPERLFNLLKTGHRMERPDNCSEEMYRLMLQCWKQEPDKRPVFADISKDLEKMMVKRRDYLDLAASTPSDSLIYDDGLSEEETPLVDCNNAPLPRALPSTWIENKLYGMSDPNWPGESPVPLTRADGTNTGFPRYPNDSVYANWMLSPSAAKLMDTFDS
In words: HiBiT-Degradation, RET wild-type degradation assay (Nano-Glo HiBiT Lytic), 293T.144 cells. Particulars: for DC50 / Emax: 6.0 hours; for DC50: read-out: 293T.144 RET (658-1114) 6.0 hours (DC50); for Emax: read-out: 293T.144 RET (658-1114) 6.0 hours (Emax). Type of test: cell-based. A digest of the protocol: (§1)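 Engineered 293T cells carry a HiBiT tag on the RET kinase domain, either wild type (line 293T.144) or G810R (line 293T.165). Compounds act for 6 h across a 10 μM-top, half-log 11-point range. Lytic HiBiT luminescence gives remaining protein, fitted for DC50 and Emax.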
(HiBiT is a short tag that completes a luciferase, so light tracks the accessible tagged protein.)

The target in test [2] is T2, RET(KD: 658-1114 G810R) (Homo sapiens, UniProt P07949, G810R).
T2 construct: 658-1114; expressed in transfected cells; host or cells: 293T.165 (293T cells, generated in-house)
T2 sequence (P07949 658-1114 G810R): T1 sequence (P07949 658-1114) with G153R
In words: HiBiT-Degradation, RET G810R degradation assay (Nano-Glo HiBiT Lytic), 293T.165 cells. It counts as cell-based. Particulars: for Emax / DC50: 6.0 hours; for Emax: % remaining protein, read-out: 293T.165 RET(KD: 658-1114 G810R) 6.0 hours (Emax); for DC50: read-out: 293T.165 RET(KD: 658-1114 G810R) 6.0 hours (DC50). A digest of the protocol:
as §1

[3] abbreviates: half-maximal degradation concentration.

As a reminder, the DC50 is the concentration at which degradation of the target reaches its halfway point. What is called Emax is the size of the effect at its maximum, as opposed to the concentration needed. For `CCC1(C(=O)NC(C)C)CCN(c2ccc(-c3nc(-c4cnn(C5CCN(C(=O)CC6(O)CCN(c7ccc(N[C@@H]8CCC(=O)NC8=O)cc7Cl)CC6)CC5)c4)cn4ncc(C#N)c34)cn2)CC1` (single isomer, unassigned) [Compound 11], in test [1] (HiBiT-Degradation), the “293T.144 RET (658-1114) 6.0 hours (IP) [nM]” value (“293T.144 RET” below) is listed as “++++ (< 50 nM = ++++)”, the DC50 is below 50 nM and the Emax is below 30%. Further, the Emax in test [2] is below 30%. Further, the DC50 in test [2] (setting [3]) is below 50 nM. For the same compound, in test [2] (HiBiT-Degradation), the “293T.165 RET(KD: 658-1114 G810R) 6.0 hours (Emax)” value is reported as “++++ (< 30% = ++++)”, the “293T.165 RET(KD: 658-1114 G810R) 6.0 hours (IP) [nM]” value is “++++ (< 50 nM = ++++)” and the half-maximal degradation concentration (DC50) is below 50 nM.
With `COc1ccc(CC2(O)CCN(c3ccc(-c4nc(-c5cnn([C@H]6CC[C@H](N7CCN(c8cc(OC)c(NC9CCC(=O)NC9=O)cc8F)CC7)CC6)c5)cn5ncc(C#N)c45)cn3)CC2)nc1` (some centres unmarked) [Compound 215, 6-[1-[4-[4-[4-[(2,6-dioxo-3-piperidyl)amino]-2-fluoro-5-methoxy-phenyl]piperazin-1-yl]cyclohexyl]pyrazol-4-yl]-4-[6-[4-hydroxy-4-[(5-methoxy-2-pyridyl)methyl]-1-piperidyl]-3-pyridyl]pyrazolo[1,5-a]pyrazine-3-carbonitrile], in test [1], the “293T.144 RET” value is reported as “++++ (<50 nM = ++++)”. For the same compound, the Emax in test [1] (% remaining protein) and in test [2] was below 30% throughout. Besides, the half-maximal degradation concentration (DC50) in test [1] (setting [3]) and in test [2] (setting [3]) was below 50 nM in each case. The “293T.165 RET(KD: 658-1114 G810R) 6.0 hours (IP) [nM]” value in test [2] is reported as “++++ (<50 nM = ++++)”.
`CO[C@@H](C(=O)N1CCN(c2ccc(-c3nc(-c4cnn([C@H]5CC[C@@H](N6CCN(c7c(F)cc(NC8CCC(=O)NC8=O)cc7F)CC6)CC5)c4)cn4ncc(C#N)c34)cn2)CC1)c1ccccc1` (single isomer, unassigned) [Compound 201]: the “293T.144 RET” value in test [1] was “++++ (<50 nM = ++++)”. Also, the Emax in test [1] (% remaining protein) and in test [2] was below 30% throughout. Besides, the half-maximal degradation concentration (DC50) in test [1] (setting [3]) and in test [2] (setting [3]) was below 50 nM throughout. The “293T.165 RET(KD: 658-1114 G810R) 6.0 hours (IP) [nM]” value in test [2] is on record as “++++ (<50 nM = ++++)”.
Regarding `COc1cc(N2CCN([C@H]3CC[C@H](n4cc(-c5cn6ncc(C#N)c6c(-c6ccc(N7C[C@H]8COC[C@@H](C7)N8Cc7ccc(F)cc7)nc6)n5)cn4)CC3)CC2)c(F)cc1NC1CCC(=O)NC1=O` (relative stereo) [Compound 164, 6-[1-[4-[4-[4-[(2,6-dioxo-3-piperidyl)amino]-2-fluoro-5-methoxy-phenyl]piperazin-1-yl]cyclohexyl]pyrazol-4-yl]-4-[6-[(1R,5S)-9-[(4-fluorophenyl)methyl]-3-oxa-7,9-diazabicyclo[3.3.1]nonan-7-yl]-3-pyridyl]pyrazolo[1,5-a]pyrazine-3-carbonitrile], in test [1], the “293T.144 RET” value is “++++ (<50 nM = ++++)”. Also, the maximal response (Emax) in test [1] (% remaining protein) and in test [2] was below 30% each time. For the same compound, the DC50 is below 50 nM in test [1] (setting [3]) and below 100 nM in test [2] (setting [3]). Further, the “293T.165 RET(KD: 658-1114 G810R) 6.0 hours (IP) [nM]” value in test [2] is listed as “+++ (<100 nM = +++)”.
Consider `N#Cc1cnn2cc(-c3cnn([C@H]4CC[C@H](N5CCN(c6ccc(N[C@H]7CCC(=O)NC7=O)cc6F)CC5)CC4)c3)nc(-c3ccc(N4CC5COCC(C4)N5Cc4ccccn4)nc3)c12` (single isomer, unassigned) [Compound 155], for which the “293T.144 RET” value in test [1] was “++++ (<50 nM = ++++)”. In addition, the maximal effect (Emax) in test [1] (% remaining protein) and in test [2] was below 30% each time. The DC50 in test [1] (setting [3]) and in test [2] (setting [3]) was below 50 nM in each case. For the same compound, the “293T.165 RET(KD: 658-1114 G810R) 6.0 hours (IP) [nM]” value in test [2] was “++++ (<50 nM = ++++)”.
In the case of `COc1ccc(CN2C3COCC2CN(c2ccc(-c4nc(-c5cnn(C6CCC(N7CCC(c8ccc(NC9CCC(=O)NC9=O)cc8Cl)CC7)CC6)c5)cn5ncc(C#N)c45)cn2)C3)cn1` (centres unmarked) [Compound 206, 6-[1-[4-[4-[2-chloro-4-[(2,6-dioxo-3-piperidyl)amino]phenyl]-1-piperidyl]cyclohexyl]pyrazol-4-yl]-4-[6-[9-[(6-methoxy-3-pyridyl)methyl]-3-oxa-7,9-diazabicyclo[3.3.1]nonan-7-yl]-3-pyridyl]pyrazolo[1,5-a]pyrazine-3-carbonitrile], the “293T.144 RET” value in test [1] is on record as “++++ (<50 nM = ++++)”. The Emax in test [1] (% remaining protein) and in test [2] was below 30% throughout. Besides, the figures for the DC50 in test [1] (setting [3]) and in test [2] (setting [3]) were below 50 nM and below 100 nM, respectively. In test [2], the “293T.165 RET(KD: 658-1114 G810R) 6.0 hours (IP) [nM]” value is recorded as “++++ (<50 nM = ++++)”.
As to `CCC1(C(=O)NC(C)C)CCN(c2ccc(-c3nc(-c4cnn(C5CCN(C(=O)CC6(O)CCN(c7ccc(NC8CCC(=O)NC8=O)cc7F)CC6)CC5)c4)cn4ncc(C#N)c34)cn2)CC1` (centres unmarked) [Compound 30, 1-(5-(3-Cyano-6-(1-(1-(2-(1-(4-((2,6-dioxopiperidin-3-yl)amino)-2-fluorophenyl)-4-hydroxypiperidin-4-yl)acetyl)piperidin-4-yl)-1H-pyrazol-4-yl)pyrazolo[1,5-a]pyrazin-4-yl)pyridin-2-yl)-4-ethyl-N-isopropylpiperidine-4-carboxamide], in test [1] (HiBiT-Degradation), the “293T.144 RET” value is “++++ (< 50 nM = ++++)”, the half-maximal degradation concentration (DC50) was below 50 nM and the Emax is below 30%. Besides, the maximal effect (Emax) in test [2] is below 50%. Besides, the 50% degradation concentration (DC50) in test [2] (setting [3]) is below 50 nM. For the same compound, in test [2] (HiBiT-Degradation), the “293T.165 RET(KD: 658-1114 G810R) 6.0 hours (Emax)” value is reported as “+++ (<50% = +++)”, the “293T.165 RET(KD: 658-1114 G810R) 6.0 hours (IP) [nM]” value is on record as “++++ (< 50 nM = ++++)” and the 50% degradation concentration (DC50) was below 50 nM.
Regarding `N#Cc1cnn2cc(-c3ccc(N4CCN(C(=O)CN5CCC(c6ccc(NC7CCC(=O)NC7=O)cc6)CC5)CC4)cc3)cc(-c3ccc(N4CC5CC(C4)N5Cc4ccccc4)nc3)c12` (centres unmarked) [Compound 22, 4-(6-(6-Benzyl-3,6-diazabicyclo[3.1.1]heptan-3-yl)pyridin-3-yl)-6-(4-(4-(2-(4-(4-((2,6-dioxopiperidin-3-yl)amino)phenyl)piperidin-1-yl)acetyl)piperazin-1-yl)phenyl)pyrazolo[1,5-a]pyridine-3-carbonitrile], in test [1] (HiBiT-Degradation), the “293T.144 RET” value is “++++ (< 50 nM = ++++)”, the DC50 was below 50 nM and the Emax was below 30%. Further, in test [2], the Emax is below 30%. The DC50 in test [2] (setting [3]) is below 100 nM. Further, in test [2] (HiBiT-Degradation), the “293T.165 RET(KD: 658-1114 G810R) 6.0 hours (Emax)” value is reported as “++++ (< 30% = ++++)”, the “293T.165 RET(KD: 658-1114 G810R) 6.0 hours (IP) [nM]” value is given as “++++ (< 50 nM = ++++)” and the DC50 was below 100 nM.
`COC1(C(=O)NC(C)C)CCN(c2ccc(-c3cc(-c4cnn(C5CCN(C(=O)CN6CCC(c7ccc(NC8CCC(=O)NC8=O)cc7F)CC6)CC5)c4)cn4ncc(C#N)c34)cn2)CC1` (centres unmarked) [Compound 6, 1-[5-[3-cyano-6-[1-[1-[2-[4-[4-[(2,6-dioxo-3-piperidyl)amino]-2-fluoro-phenyl]-1-piperidyl]acetyl]-4-piperidyl]pyrazol-4-yl]pyrazolo[1,5-a]pyridin-4-yl]-2-pyridyl]-N-isopropyl-4-methoxy-piperidine-4-carboxamide]: in test [1] (HiBiT-Degradation), the “293T.144 RET” value is “++++ (< 50 nM = ++++)”, the 50% degradation concentration (DC50) is below 50 nM and the maximal response (Emax) is below 30%. Besides, in test [2], the maximum response (Emax) is below 50%. In test [2] (setting [3]), the DC50 was below 50 nM. Further, in test [2] (HiBiT-Degradation), the “293T.165 RET(KD: 658-1114 G810R) 6.0 hours (Emax)” value was “+++ (<50% = +++)”, the “293T.165 RET(KD: 658-1114 G810R) 6.0 hours (IP) [nM]” value was “++++ (< 50 nM = ++++)” and the DC50 is below 50 nM.
